According to PubChem BioAssay (NCI):
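Growth conditions: 96-well plates. Treatment: test compound, 48 hours, 5 concentrations. Analysis: linear interpolation between bracketing concentrations; unreached endpoints set to highest concentration. Abbreviation: GI50, concentration required for 50% inhibition of growth. The concentration for full growth arrest is given as TGI.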

Legend:
Assay in all cases: NCI anticancer screen, dose series, 48 h; in the data active means GI50 below about 0.43 µM; inactive means the rest
SR leukemia = tested on: SR leukemia
HCT-15 colon = tested on: HCT-15 colon
MDA-MB-435 = tested on: MDA-MB-435
CCRF-CEM leukemia = tested on: CCRF-CEM leukemia
SF-539 CNS = tested on: SF-539 CNS
786-0 renal = tested on: 786-0 renal
OVCAR-4 ovarian = tested on: OVCAR-4 ovarian
SNB-19 CNS = tested on: SNB-19 CNS
NCI-H23 lung = tested on: NCI-H23 lung
CAKI-1 renal = tested on: CAKI-1 renal

CC(C)CCCC(C)[C@H]1CCC2[C@@H]3CCC4Cc5nc6c(nc5C[C@]4(C)C3CC[C@@]21C)CC1CC[C@@H]2C(CC[C@@]3(C)C2CC[C@@H]3C(C)CCCC(C)C)[C@@]1(C)C6 (some centres undefined)
> 100 µM: TGI (SR leukemia) | TGI (HCT-15 colon) | TGI (MDA-MB-435) | TGI (CCRF-CEM leukemia) | TGI (SF-539 CNS) | TGI (786-0 renal) | TGI (OVCAR-4 ovarian) | TGI (SNB-19 CNS) | TGI (NCI-H23 lung)

C[C@H](OCc1ccccc1)C(=O)N1CCS(=O)(=O)N2CCC[C@@H]2C1=O
> 100 µM: TGI (SR leukemia) | TGI (HCT-15 colon) | TGI (CCRF-CEM leukemia) | TGI (SF-539 CNS) | TGI (786-0 renal) | TGI (OVCAR-4 ovarian) | TGI (SNB-19 CNS) | TGI (CAKI-1 renal) | TGI (NCI-H23 lung)

CN(C)CCN1C(=O)c2c(c3c4ccccc4n4c3c3c2c2ccccc2n3C2CC(O)C(O)C4(C)O2)C1=O (centres undefined)
13.6 µM: TGI (OVCAR-4 ovarian)
7.99 µM: TGI (MDA-MB-435)
inactive: GI50 (HCT-15 colon) 1.59 µM | GI50 (MDA-MB-435) 2 µM | GI50 (CCRF-CEM leukemia) 1.59 µM | GI50 (786-0 renal) 1.93 µM | GI50 (OVCAR-4 ovarian) 2.69 µM | GI50 (SNB-19 CNS) 1.58 µM | GI50 (CAKI-1 renal) 1.98 µM | GI50 (NCI-H23 lung) 1.81 µM
6.17 µM: TGI (SR leukemia)
active: GI50 (SR leukemia) 0.207 µM
9.75 µM: TGI (NCI-H23 lung)
11.8 µM: TGI (SNB-19 CNS)
14.4 µM: TGI (CCRF-CEM leukemia)
8.72 µM: TGI (HCT-15 colon)
8.37 µM: TGI (786-0 renal)
12 µM: TGI (CAKI-1 renal)

C/C(O)=C(/C=N/C(=S)Nc1ccc(S(N)(=O)=O)cc1)C(=O)Nc1ccccc1C
65.9 µM: TGI (CCRF-CEM leukemia)
> 100 µM: TGI (HCT-15 colon) | TGI (MDA-MB-435) | TGI (SF-539 CNS) | TGI (786-0 renal) | TGI (OVCAR-4 ovarian) | TGI (SNB-19 CNS) | TGI (CAKI-1 renal) | TGI (NCI-H23 lung)

CC(=O)Nc1ccc(S(=O)(=O)N/N=C/CN2C(=O)c3ccccc3C2=O)cc1
> 100 µM: TGI (SR leukemia) | TGI (HCT-15 colon) | TGI (CCRF-CEM leukemia) | TGI (SF-539 CNS) | TGI (786-0 renal) | TGI (OVCAR-4 ovarian) | TGI (SNB-19 CNS) | TGI (CAKI-1 renal) | TGI (NCI-H23 lung)

O=C1CCCCC1S(=O)(=O)c1ccccc1 (centres undefined)
> 100 µM: TGI (SR leukemia) | TGI (HCT-15 colon) | TGI (CCRF-CEM leukemia) | TGI (SF-539 CNS) | TGI (786-0 renal) | TGI (OVCAR-4 ovarian) | TGI (SNB-19 CNS) | TGI (CAKI-1 renal) | TGI (NCI-H23 lung)

COc1ccc(CCN2CC=Cn3c2nc2ccccc2c3=O)cc1
31.6 µM: TGI (786-0 renal)
0.0627 µM: TGI (SF-539 CNS)
> 45.7 µM: TGI (HCT-15 colon)
> 100 µM: TGI (SR leukemia) | TGI (CCRF-CEM leukemia) | TGI (SNB-19 CNS) | TGI (CAKI-1 renal) | TGI (NCI-H23 lung)
> 96 µM: TGI (OVCAR-4 ovarian)
active: GI50 (SR leukemia) 0.0354 µM | GI50 (HCT-15 colon) 0.0185 µM | GI50 (CCRF-CEM leukemia) 0.03 µM | GI50 (SF-539 CNS) 0.0209 µM | GI50 (786-0 renal) 0.0445 µM | GI50 (OVCAR-4 ovarian) 0.0637 µM | GI50 (SNB-19 CNS) 0.0614 µM | GI50 (CAKI-1 renal) 0.0576 µM | GI50 (NCI-H23 lung) 0.0416 µM

NCCCC[C@@H]1NC(=O)[C@H]2CCCN2C(=O)[C@H](Cc2ccccc2)CNC(=O)[C@H](Cc2ccccc2)NC1=O
inactive: GI50 (SR leukemia) 31.9 µM | GI50 (HCT-15 colon) > 37.5 µM | GI50 (MDA-MB-435) > 37.5 µM | GI50 (SF-539 CNS) > 37.5 µM | GI50 (786-0 renal) > 37.5 µM | GI50 (OVCAR-4 ovarian) > 37.5 µM | GI50 (SNB-19 CNS) > 37.5 µM | GI50 (CAKI-1 renal) > 37.5 µM | GI50 (NCI-H23 lung) > 37.5 µM
> 37.5 µM: TGI (SR leukemia) | TGI (HCT-15 colon) | TGI (MDA-MB-435) | TGI (SF-539 CNS) | TGI (786-0 renal) | TGI (OVCAR-4 ovarian) | TGI (SNB-19 CNS) | TGI (CAKI-1 renal) | TGI (NCI-H23 lung)

NNC(=O)C1CCC(=O)N1S(=O)(=O)c1ccccc1 (centres undefined)
> 100 µM: TGI (SR leukemia) | TGI (HCT-15 colon) | TGI (CCRF-CEM leukemia) | TGI (SF-539 CNS) | TGI (786-0 renal) | TGI (OVCAR-4 ovarian) | TGI (SNB-19 CNS) | TGI (CAKI-1 renal) | TGI (NCI-H23 lung)

COc1cc2c(cc1OC)[C@H](C)N1CCc3cc(OC)c(OC)cc3[C@@H]1C2
> 100 µM: TGI (HCT-15 colon) | TGI (MDA-MB-435) | TGI (CCRF-CEM leukemia) | TGI (SF-539 CNS) | TGI (786-0 renal) | TGI (OVCAR-4 ovarian) | TGI (SNB-19 CNS) | TGI (CAKI-1 renal) | TGI (NCI-H23 lung)

CCCCOC(=O)N1CCN(/[N+]([O-])=N/Oc2ccc([N+](=O)[O-])cc2[N+](=O)[O-])CC1
16.4 µM: TGI (MDA-MB-435)
5.67 µM: TGI (786-0 renal)
6.77 µM: TGI (CAKI-1 renal)
36.8 µM: TGI (SNB-19 CNS)
19.5 µM: TGI (NCI-H23 lung)
21.4 µM: TGI (HCT-15 colon)
6.11 µM: TGI (SF-539 CNS)
inactive: GI50 (SR leukemia) > 100 µM | GI50 (HCT-15 colon) 3.99 µM | GI50 (MDA-MB-435) 4.6 µM | GI50 (SF-539 CNS) 2.56 µM | GI50 (786-0 renal) 2.47 µM | GI50 (SNB-19 CNS) 15.1 µM | GI50 (CAKI-1 renal) 3.16 µM | GI50 (NCI-H23 lung) 4.6 µM
> 100 µM: TGI (SR leukemia)

COc1cc(OC)c(C/C=C/c2ccccc2)cc1O
35.2 µM: TGI (NCI-H23 lung)
30.1 µM: TGI (HCT-15 colon)
33.5 µM: TGI (OVCAR-4 ovarian)
32.2 µM: TGI (786-0 renal)
29.3 µM: TGI (SNB-19 CNS)
40.9 µM: TGI (CAKI-1 renal)
30.7 µM: TGI (MDA-MB-435)
51.6 µM: TGI (CCRF-CEM leukemia)
29.7 µM: TGI (SF-539 CNS)

O=C1c2cc3c(cc2[C@@H]2[C@H]1c1ccc([N+](=O)[O-])cc1C(=O)N2CCCBr)OCO3
> 100 µM: TGI (SNB-19 CNS)
< 0.01 µM: TGI (SR leukemia) | TGI (SF-539 CNS) | TGI (786-0 renal)
7 µM: TGI (OVCAR-4 ovarian)
< 0.0335 µM: TGI (CAKI-1 renal)
active: GI50 (SR leukemia) < 0.01 µM | GI50 (HCT-15 colon) < 0.0226 µM | GI50 (MDA-MB-435) < 0.01 µM | GI50 (SF-539 CNS) < 0.01 µM | GI50 (786-0 renal) < 0.01 µM | GI50 (OVCAR-4 ovarian) 0.0771 µM | GI50 (SNB-19 CNS) < 0.01 µM | GI50 (CAKI-1 renal) < 0.01 µM | GI50 (NCI-H23 lung) < 0.01 µM
0.219 µM: TGI (MDA-MB-435)
0.656 µM: TGI (HCT-15 colon)
0.0775 µM: TGI (NCI-H23 lung)

Cc1nc(Nc2ccccc2)sc1C(=O)CC(=O)C(=O)Nc1c(C(C)C)cccc1C(C)C
> 100 µM: TGI (SR leukemia) | TGI (HCT-15 colon) | TGI (CCRF-CEM leukemia) | TGI (SF-539 CNS) | TGI (786-0 renal) | TGI (OVCAR-4 ovarian) | TGI (SNB-19 CNS) | TGI (CAKI-1 renal) | TGI (NCI-H23 lung)

CC1=NN(C(=O)c2ccccc2O)C(=O)/C1=C/c1ccc(O)cc1
6.73 µM: TGI (SF-539 CNS)
19.9 µM: TGI (NCI-H23 lung)
> 100 µM: TGI (SR leukemia) | TGI (HCT-15 colon) | TGI (CCRF-CEM leukemia) | TGI (786-0 renal) | TGI (OVCAR-4 ovarian) | TGI (SNB-19 CNS) | TGI (CAKI-1 renal)

CCOC(=O)/C(C1=NCCN1)=C(\O)c1ccccc1
> 100 µM: TGI (SR leukemia) | TGI (HCT-15 colon) | TGI (CCRF-CEM leukemia) | TGI (SF-539 CNS) | TGI (786-0 renal) | TGI (OVCAR-4 ovarian) | TGI (SNB-19 CNS) | TGI (CAKI-1 renal) | TGI (NCI-H23 lung)

Cc1cc([N+](=O)[O-])c(NS(=O)(=O)c2cccc(C(=O)O)c2)cc1-c1cccnc1
> 100 µM: TGI (SR leukemia) | TGI (HCT-15 colon) | TGI (MDA-MB-435) | TGI (CCRF-CEM leukemia) | TGI (SF-539 CNS) | TGI (786-0 renal) | TGI (OVCAR-4 ovarian) | TGI (SNB-19 CNS) | TGI (NCI-H23 lung)
inactive: GI50 (SR leukemia) > 100 µM | GI50 (HCT-15 colon) > 100 µM | GI50 (MDA-MB-435) > 100 µM | GI50 (CCRF-CEM leukemia) > 100 µM | GI50 (SF-539 CNS) > 100 µM | GI50 (786-0 renal) > 100 µM | GI50 (OVCAR-4 ovarian) > 100 µM | GI50 (SNB-19 CNS) > 100 µM | GI50 (NCI-H23 lung) > 100 µM

CCOc1cc2c(C(=O)CC)c(O)ccc2o1
> 100 µM: TGI (SR leukemia) | TGI (HCT-15 colon) | TGI (SF-539 CNS) | TGI (786-0 renal) | TGI (SNB-19 CNS) | TGI (CAKI-1 renal) | TGI (NCI-H23 lung)
> 56.8 µM: TGI (OVCAR-4 ovarian)
> 85.1 µM: TGI (CCRF-CEM leukemia)
